Laboratory results: patent publication US11040035B2, “3-oxo-2,6-diphenyl-2,3-dihydropyridazine-4-carboxamides” (BAYER PHARMA AKTIENGESELLSCHAFT, priority 2016, dated 2021)

What was measured:
[1] = target: T1, AHR (Homo sapiens, UniProt P35869); assay: In vitro assay 2: agonism in human cell line (transactivation assay)
T1 sequence (P35869 11-848): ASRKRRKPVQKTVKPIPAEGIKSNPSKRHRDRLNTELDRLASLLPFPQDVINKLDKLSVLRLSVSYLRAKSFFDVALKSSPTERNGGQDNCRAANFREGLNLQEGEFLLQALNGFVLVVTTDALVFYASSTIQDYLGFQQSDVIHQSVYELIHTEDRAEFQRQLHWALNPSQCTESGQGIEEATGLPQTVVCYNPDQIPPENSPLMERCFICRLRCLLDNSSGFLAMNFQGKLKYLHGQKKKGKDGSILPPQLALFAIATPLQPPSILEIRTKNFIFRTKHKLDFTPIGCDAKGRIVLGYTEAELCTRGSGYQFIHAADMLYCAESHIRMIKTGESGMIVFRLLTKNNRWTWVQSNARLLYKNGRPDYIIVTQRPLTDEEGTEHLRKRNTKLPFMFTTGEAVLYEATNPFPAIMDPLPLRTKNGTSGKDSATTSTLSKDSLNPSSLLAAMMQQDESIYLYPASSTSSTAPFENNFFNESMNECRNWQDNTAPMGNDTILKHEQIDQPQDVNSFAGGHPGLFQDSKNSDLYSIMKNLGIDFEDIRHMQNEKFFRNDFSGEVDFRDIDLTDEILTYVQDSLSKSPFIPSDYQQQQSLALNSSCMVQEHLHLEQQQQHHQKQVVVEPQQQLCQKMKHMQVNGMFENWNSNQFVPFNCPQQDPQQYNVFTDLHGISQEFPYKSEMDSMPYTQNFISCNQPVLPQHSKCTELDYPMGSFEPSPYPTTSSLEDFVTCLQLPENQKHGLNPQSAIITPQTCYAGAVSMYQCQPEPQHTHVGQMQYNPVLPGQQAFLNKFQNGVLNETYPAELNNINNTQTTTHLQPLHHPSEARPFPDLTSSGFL

[2] = target: T1, AHR; assay: In vitro assay 1: antagonism in human cell line (transactivation assay, kynurenic acid prestimulated); details: Assay 1: AHR-luc Hum Antagonism IC50 [M], 150 μM kynurenic acid, 20 hours, firefly luciferase
[3] = test system: AHR-regulated gene CYP1A1; assay: In vitro assay 3: AHR-regulated CYP1A1 expression in human cell line (U937, qPCR); details: Homo sapiens, U-937, 6 h, read-out: Assay 3: Hum CYP1A1 Antagonism IC50 [M], U937 cells, 200 μM KA, 6 hours, qPCR
Procedure: In Vitro Assay 3: AHR-Regulated CYP1A1 Expression in Human Cell Line
To assess the AHR inhibitory activity of the substances described in this application, the ability thereof to antagonise ligand-induced AHR gene regulation in a dose-dependent manner was quantified. For this purpose, quantitative PCR analysis was used to determine expression of the AHR-regulated gene CYP1A1 in a human monocytic U937 cell line upon stimulation with 200 μM KA in the presence and absence of AHR inhibitor. U937 cells were sown at a concentration of 2×10^5 cells/well in 100 ul of growth medium (RPMI 1640, 20% FCS) in 96-well microtitre plates. CYP1A1 expression was induced with 200 μM KA (positive control) in the presence or absence of the substances for 6 hours. Human U937 cells were typically incubated with eight different concentrations of the substances (1 nM, 3 nM, 10 nM, 30 nM, 100 nM, 300 nM, 1 μM and 3 μM) and analyzed in duplicate on the same microtitre plate. After stimulation, cells were lysed with Nucleic Acid Lysis Solution (#4305895, Applied Biosystems) and RNA was isolated using the 6100 Nucleic Acid Preparation Station (Applied Biosystems) and reverse-transcribed to cDNA using SuperScript VILO cDNA synthesis kit (#11754-250, Invitrogen). Unstimulated cells were used as the negative control. Taqman probes for human CYP1A1 (Hs01054797_g1) and human HPRT (Hs02800695_m1) were used to analyze fold expression of CYP1A1 of HPRT. Quantitation was performed on a Taqman SDS7900HT.

[4] = Assay 2: AHR-luc Hum Agonism IC50 [M], no kynurenic acid, 20 hours, firefly luciferase

IC50 [1, 4] [M] | IC50 [2] [M] | IC50 [3] [M] | IC50 ([1]; read-out: Assay 2: AHR-luc Hum Agonism IC50, no kynurenic acid, 20 hours, firefly luciferase) [M] | SMILES
> 2e-05 | 1.88e-07 | 1.34e-07 |  | CC(C)(CO)NC(=O)c1cc(-c2ccc(Cl)cc2)nn(-c2cccc(F)c2)c1=O [Example 186, 6-(4-Chlorophenyl)-2-(3-fluorophenyl)-N-(1-hydroxy-2-methylpropan-2-yl)-3-oxo-2,3-dihydropyridazine-4-carboxamide]
> 2e-05 | 1.02e-07 | 1.1e-07 |  | O=C(NC1(CO)CC1)c1cc(-c2ccc(Cl)cc2)nn(-c2cccc(F)c2)c1=O [Example 187, 6-(4-Chlorophenyl)-2-(3-fluorophenyl)-N-[1-(hydroxymethyl)cyclopropyl]-3-oxo-2,3-dihydropyridazine-4-carboxamide]
> 2e-05 | 1.86e-07 | 2e-06 |  | O=C(NCCCO)c1cc(-c2ccc(Cl)cc2)nn(-c2cccc(F)c2)c1=O [Example 189, 6-(4-Chlorophenyl)-2-(3-fluorophenyl)-N-(3-hydroxypropyl)-3-oxo-2,3-dihydropyridazine-4-carboxamide]
> 2e-05 | 3.59e-08 | 4.92e-08 |  | O=C(NCC1(O)CCC1)c1cc(-c2ccc(Cl)cc2)nn(-c2cccc(F)c2)c1=O [Example 212, 6-(4-Chlorophenyl)-2-(3-fluorophenyl)-N-[(1-hydroxycyclobutyl)methyl]-3-oxo-2,3-dihydropyridazine-4-carboxamide]
> 2e-05 | 8.72e-08 | 2.21e-07 |  | O=C(NC1(CO)CCC1)c1cc(-c2ccc(Cl)cc2)nn(-c2cccc(F)c2)c1=O [Example 213, 6-(4-Chlorophenyl)-2-(3-fluorophenyl)-N-[1-(hydroxymethyl)cyclobutyl]-3-oxo-2,3-dihydropyridazine-4-carboxamide]
> 2e-05 | 1.5e-07 | 2e-06 |  | COC[C@H](CO)NC(=O)c1cc(-c2ccc(Cl)cc2)nn(-c2cccc(F)c2)c1=O [Example 229, 6-(4-Chlorophenyl)-2-(3-fluorophenyl)-N-[(2S)-1-hydroxy-3-methoxypropan-2-yl]-3-oxo-2,3-dihydropyridazine-4-carboxamide]
> 2e-05 | 4.72e-08 | 5.77e-08 |  | C[C@@H](O)[C@@H](C)NC(=O)c1cc(-c2ccc(Cl)cc2)nn(-c2cccc(F)c2)c1=O [Example 231, 6-(4-Chlorophenyl)-2-(3-fluorophenyl)-N-[(2R,3R)-3-hydroxybutan-2-yl]-3-oxo-2,3-dihydropyridazine-4-carboxamide]

Continued, molecule first:

SMILES | IC50 [1, 4] [M] | IC50 [2] [M] | IC50 [3] [M] | IC50 ([1]; read-out: Assay 2: AHR-luc Hum Agonism IC50, no kynurenic acid, 20 hours, firefly luciferase) [M]
O=C(NCC(O)C(F)(F)F)c1cc(-c2ccc(OC(F)(F)F)cc2)nn(-c2cccc(F)c2)c1=O (stereo not drawn) [Example 182, 2-(3-Fluorophenyl)-3-oxo-N-(3,3,3-trifluoro-2-hydroxypropyl)-6-[4-(trifluoromethoxy)phenyl]-2,3-dihydropyridazine-4-carboxamide] | > 2e-05 | 3.41e-08 | 5.9e-08 | 
C[C@H](O)[C@H](C)NC(=O)c1cc(-c2ccc(OC(F)(F)F)cc2)nn(-c2cccc(F)c2)c1=O [Example 185, 2-(3-Fluorophenyl)-N-[(2S,3S)-3-hydroxybutan-2-yl]-3-oxo-6-[4-(trifluoromethoxy)phenyl]-2,3-dihydropyridazine-4-carboxamide] | > 2e-05 | 3.9e-08 | 8.06e-08 | 
CC(NC(=O)c1cc(-c2ccc(Cl)cc2)nn(-c2cccc(F)c2)c1=O)C(O)C(F)(F)F (stereo not drawn) [Example 218, Stereoisomer no. 1 of 6-(4-chlorophenyl)-2-(3-fluorophenyl)-3-oxo-N-(4,4,4-trifluoro-3-hydroxybutan-2-yl)-2,3-dihydropyridazine-4-carboxamide] |  | 6.88e-08 | 1.51e-07 | > 2e-05
O=C(N[C@H](CO)Cc1ccccc1)c1cc(-c2ccc(Cl)cc2)nn(-c2cccc(F)c2)c1=O [Example 220, (−)-6-(4-Chlorophenyl)-2-(3-fluorophenyl)-N-[(2S)-1-hydroxy-3-phenylpropan-2-yl]-3-oxo-2,3-dihydropyridazine-4-carboxamide] | > 2e-05 | 1.03e-07 | 6e-07 | 
C[C@@H](CO)NC(=O)c1cc(-c2ccc(C(F)(F)F)cc2)nn(-c2cccc(F)c2)c1=O [Example 237, 2-(3-Fluorophenyl)-N-[(2S)-1-hydroxypropan-2-yl]-3-oxo-6-[4-(trifluoromethyl)phenyl]-2,3-dihydropyridazine-4-carboxamide] | > 2e-05 | 1.23e-08 | 2.46e-08 | 
C[C@H](CO)CNC(=O)c1cc(-c2ccc(C(F)(F)F)cc2)nn(-c2cccc(F)c2)c1=O [Example 246, (−)-2-(3-Fluorophenyl)-N-[(2S)-3-hydroxy-2-methylpropyl]-3-oxo-6-[4-(trifluoromethyl)phenyl]-2,3-dihydropyridazine-4-carboxamide] | > 2e-05 | 2.78e-08 | 4.05e-08 | 
C[C@H](O)CCNC(=O)c1cc(-c2ccc(C(F)(F)F)cc2)nn(-c2cccc(F)c2)c1=O [Example 248, 2-(3-Fluorophenyl)-N-[(3S)-3-hydroxybutyl]-3-oxo-6-[4-(trifluoromethyl)phenyl]-2,3-dihydropyridazine-4-carboxamide] | > 2e-05 | 9.73e-08 | 1.36e-07 | 
O=C(NCCCO)c1cc(-c2ccc(C(F)(F)F)cc2)nn(-c2cccc(F)c2)c1=O [Example 249, 2-(3-Fluorophenyl)-N-(3-hydroxypropyl)-3-oxo-6-[4-(trifluoromethyl)phenyl]-2,3-dihydropyridazine-4-carboxamide] | > 2e-05 | 8.84e-08 | 1.07e-07 | 
O=C(NC(CO)CO)c1cc(-c2ccc(C(F)(F)F)cc2)nn(-c2cccc(F)c2)c1=O [Example 250, N-(1,3-Dihydroxypropan-2-yl)-2-(3-fluorophenyl)-3-oxo-6-[4-(trifluoromethyl)phenyl]-2,3-dihydropyridazine-4-carboxamide] | > 2e-05 | 4.69e-08 | 7.24e-08 | 
O=C(N[C@H](CO)Cc1ccccc1)c1cc(-c2ccc(C(F)(F)F)cc2)nn(-c2cccc(F)c2)c1=O [Example 251, 2-(3-Fluorophenyl)-N-[(2S)-1-hydroxy-3-phenylpropan-2-yl]-3-oxo-6-[4-(trifluoromethyl)phenyl]-2,3-dihydropyridazine-4-carboxamide] | > 2e-05 | 5.09e-06 | 3.67e-08 | 
CC(C)(O)CNC(=O)c1cc(-c2ccc(C(F)(F)F)cc2)nn(-c2cccc(F)c2)c1=O [Example 256, 2-(3-Fluorophenyl)-N-(2-hydroxy-2-methylpropyl)-3-oxo-6-[4-(trifluoromethyl)phenyl]-2,3-dihydropyridazine-4-carboxamide] | > 2e-05 | 1.44e-08 | 2.83e-08 | 
COC[C@H](CO)NC(=O)c1cc(-c2ccc(C(F)(F)F)cc2)nn(-c2cccc(F)c2)c1=O [Example 257, (+)-2-(3-Fluorophenyl)-N-[(2S)-1-hydroxy-3-methoxypropan-2-yl]-3-oxo-6-[4-(trifluoromethyl)phenyl]-2,3-dihydropyridazine-4-carboxamide] | > 2e-05 | 6.37e-08 | 1.34e-07 | 
COC[C@@H](CO)NC(=O)c1cc(-c2ccc(C(F)(F)F)cc2)nn(-c2cccc(F)c2)c1=O [Example 258, (−)-2-(3-Fluorophenyl)-N-[(2R)-1-hydroxy-3-methoxypropan-2-yl]-3-oxo-6-[4-(trifluoromethyl)phenyl]-2,3-dihydropyridazine-4-carboxamide] | > 2e-05 | 3.01e-08 | 3.71e-08 | 
